Data as given in PubChem BioAssay AID258 (DTP/NCI, 2004).
Values joined by “and” are separate entries in the source; they are usually repeats but may differ in a detail not shown here. Equal entries are not always repeated. Inconclusive results and toxic doses are left out.

Tested on: CD2F1 mice, L1210 leukemia sc, survival T/C
Assay: NCI In Vivo Anticancer Drug Screen. Data for tumor model L1210 Leukemia (subcutaneous) in CD2F1 (CDF1) mice
Details: endpoint: median survival time, higher = longer survival
Procedure, shortened: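 T/C ratio: treated-group survival or tumor size over vehicle-control group measurement, in mice carrying transplanted tumors.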

[1] = dose: 8.4 mg/kg/injection, schedule: Q01DX Z (sc), vehicle: water
[2] = dose: 14.0 mg/kg/injection, schedule: Q01DX Z (sc), vehicle: water
[3] = dose: 23.0 mg/kg/injection, schedule: Q01DX Z (sc), vehicle: water
[4] = dose: 39.0 mg/kg/injection, schedule: Q01DX Z (sc), vehicle: water

For `Nc1ccc(C(=O)O)cn1`, the T/C (dose: 14.0 mg/kg/injection, schedule: Q01DX Z (sc), vehicle: other) was 100 % of control, the T/C (dose: 23.0 mg/kg/injection, schedule: Q01DX Z (sc), vehicle: other) was 100 % of control and the T/C (dose: 37.0 mg/kg/injection, schedule: Q01DX Z (sc), vehicle: other) was 100 % of control. For the same compound, the T/C (dose: 65.0 mg/kg/injection, schedule: Q01DX Z (sc), vehicle: other) was 111 % of control, the T/C (dose: 108.0 mg/kg/injection, schedule: Q01DX Z (sc), vehicle: other) was 100 % of control and the T/C (dose: 180.0 mg/kg/injection, schedule: Q01DX Z (sc), vehicle: other) was 111 % of control.

In the case of `C[n+]1c2ccccc2nc2c(N)cc(N)cc21`, the T/C (dose: 3.0 mg/kg/injection, schedule: Q01DX Z (ip), vehicle: water) is reported as 100 % of control, the T/C (dose: 5.0 mg/kg/injection, schedule: Q01DX Z (ip), vehicle: water) is reported as 100 % of control and the T/C (dose: 5.0 mg/kg/injection, schedule: Q01DX Z (sc), vehicle: water) is reported as 100 % of control. The T/C (dose: 8.4 mg/kg/injection, schedule: Q01DX Z (ip), vehicle: water) was 100 % of control, the T/C [1] was 100 % of control and the T/C (dose: 14.0 mg/kg/injection, schedule: Q01DX Z (ip), vehicle: water) was 100 % of control. For the same compound, the T/C [2] was 100 % of control, the T/C (dose: 23.0 mg/kg/injection, schedule: Q01DX Z (ip), vehicle: water) was 100 % of control and the T/C [3] was 111 % of control. For the same compound, the T/C (dose: 39.0 mg/kg/injection, schedule: Q01DX Z (ip), vehicle: water) was 111 % of control and the T/C [4] was 111 % of control.

In the case of `CC(=O)[C@H]1CC[C@H]2[C@@H]3C[C@H](C)C4=CC(=O)CC[C@]4(C)[C@H]3C(=O)C[C@]12C`, the T/C (dose: 20.0 mg/kg/injection, schedule: Q01DX009 (ip), vehicle: saline with Tween-80) is reported as 94 % of control, the T/C (dose: 20.0 mg/kg/injection, schedule: Q01DX009 (sc), vehicle: saline with Tween-80) is reported as 97 % of control and the T/C (dose: 40.0 mg/kg/injection, schedule: Q01DX009 (ip), vehicle: saline with Tween-80) is reported as 93 % of control. The T/C (dose: 40.0 mg/kg/injection, schedule: Q01DX009 (sc), vehicle: saline with Tween-80) was 98 % of control, the T/C (dose: 80.0 mg/kg/injection, schedule: Q01DX009 (ip), vehicle: saline with Tween-80) was 93 % of control and the T/C (dose: 80.0 mg/kg/injection, schedule: Q01DX009 (sc), vehicle: saline with Tween-80) was 101 % of control. The T/C (dose: 160.0 mg/kg/injection, schedule: Q01DX009 (ip), vehicle: saline with Tween-80) was 93 % of control, the T/C (dose: 160.0 mg/kg/injection, schedule: Q01DX009 (sc), vehicle: saline with Tween-80) was 98 % of control and the T/C (dose: 320.0 mg/kg/injection, schedule: Q01DX009 (ip), vehicle: saline with Tween-80) was 96 % of control. The T/C (dose: 320.0 mg/kg/injection, schedule: Q01DX009 (sc), vehicle: saline with Tween-80) was 105 % of control and the T/C (dose: 640.0 mg/kg/injection, schedule: Q01DX009 (sc), vehicle: saline with Tween-80) was 109 % of control.

With `N[C@@H](Cc1ccc(N(CCCl)CCCl)cc1)C(=O)O` the T/C (dose: 0.31 mg/kg/injection, schedule: Q01DX009 (ip), vehicle: saline) was 96 % of control, the T/C (dose: 0.31 mg/kg/injection, schedule: Q01DX009 (sc), vehicle: saline) was 100 % of control and the T/C (dose: 0.62 mg/kg/injection, schedule: Q01DX009 (ip), vehicle: saline) was 104 % of control. For the same compound, the T/C (dose: 0.62 mg/kg/injection, schedule: Q01DX009 (sc), vehicle: saline) was 104 % of control, the T/C (dose: 0.63 mg/kg/injection, schedule: Q01DX009 (ip), vehicle: saline) was 99 % of control and the T/C (dose: 1.0 mg/kg/injection, schedule: Q01DX009 (ip), vehicle: suspension in saline) was 121 % of control. The T/C (dose: 1.0 mg/kg/injection, schedule: Q01DX009 (sc), vehicle: saline with Tween-80) was 105 % of control and 108 % of control, the T/C (dose: 1.25 mg/kg/injection, schedule: Q01DX009 (ip), vehicle: saline) was 112 % of control and 113 % of control and 121 % of control and the T/C (dose: 1.25 mg/kg/injection, schedule: Q01DX009 (sc), vehicle: saline) was 115 % of control and 121 % of control. For the same compound, the T/C (dose: 2.0 mg/kg/injection, schedule: Q01DX009 (sc), vehicle: saline with Tween-80) was 110 % of control and 124 % of control, the T/C (dose: 2.5 mg/kg/injection, schedule: Q01DX009 (ip), vehicle: saline) was 124 % of control and the T/C (dose: 3.0 mg/kg/injection, schedule: Q01DX009 (ip), vehicle: saline) was 153 % of control. For the same compound, the T/C (dose: 3.5 mg/kg/injection, schedule: Q01DX009 (ip), vehicle: saline) was 168 % of control, the T/C (dose: 4.0 mg/kg/injection, schedule: Q01DX009 (ip), vehicle: saline) was 173 % of control and the T/C (dose: 4.0 mg/kg/injection, schedule: Q01DX009 (ip), vehicle: suspension in saline) was 169 % of control. The T/C (dose: 4.0 mg/kg/injection, schedule: Q01DX009 (sc), vehicle: saline with Tween-80) was 163 % of control, the T/C (dose: 4.5 mg/kg/injection, schedule: Q01DX009 (ip), vehicle: saline) was 169 % of control and the T/C (dose: 5.0 mg/kg/injection, schedule: Q01DX009 (sc), vehicle: saline) was 153 % of control and 156 % of control. For the same compound, the T/C (dose: 5.3 mg/kg/injection, schedule: Q01DX009 (sc), vehicle: saline) was 161 % of control, the T/C (dose: 7.5 mg/kg/injection, schedule: Q01DX009 (sc), vehicle: saline) was 104 % of control and the T/C (dose: 8.0 mg/kg/injection, schedule: Q01DX009 (ip), vehicle: suspension in saline) was 88 % of control. For the same compound, the T/C (dose: 8.0 mg/kg/injection, schedule: Q01DX009 (sc), vehicle: saline with Tween-80) was 168 % of control, the T/C (dose: 10.0 mg/kg/injection, schedule: Q01DX009 (sc), vehicle: saline) was 98 % of control and the T/C (dose: 16.0 mg/kg/injection, schedule: Q01DX009 (sc), vehicle: saline with Tween-80) was 118 % of control and 87 % of control. The T/C (dose: 18.0 mg/kg/injection, schedule: Q01DX009 (sc), vehicle: saline) was 110 % of control, the T/C (dose: 32.0 mg/kg/injection, schedule: Q01DX009 (sc), vehicle: saline with Tween-80) was 107 % of control and the T/C (dose: 64.0 mg/kg/injection, schedule: Q01DX009 (sc), vehicle: saline with Tween-80) was 108 % of control.

`Nc1nc(N)c2cc(CCc3ccc(C(=O)NC(CCC(=O)O)C(=O)O)cc3)ccc2n1` (centres undefined) was tested, and the T/C (dose: 0.04 mg/kg/injection, schedule: Q01DX009 (ip), vehicle: Klucel (hydroxypropylcellulose) (HPC)) was 98 % of control, the T/C (dose: 0.08 mg/kg/injection, schedule: Q01DX009 (ip), vehicle: Klucel (hydroxypropylcellulose) (HPC)) was 102 % of control and the T/C (dose: 0.16 mg/kg/injection, schedule: Q01DX009 (ip), vehicle: Klucel (hydroxypropylcellulose) (HPC)) was 105 % of control. The T/C (dose: 0.63 mg/kg/injection, schedule: Q01DX009 (ip), vehicle: Klucel (hydroxypropylcellulose) (HPC)) was 89 % of control.

For `C[C@]12CC[C@H](OC3OC(CO)C(O)C(O)C3O)C[C@H]1CC[C@@H]1[C@@H]2CC[C@]2(C)[C@@H](C3=CCOC3=O)CC[C@]12O` (some centres undefined), the T/C (dose: 3.0 mg/kg/injection, schedule: Q01DX Z (sc), vehicle: saline) was 110 % of control, the T/C (dose: 5.0 mg/kg/injection, schedule: Q01DX Z (sc), vehicle: saline) was 110 % of control and the T/C (dose: 8.4 mg/kg/injection, schedule: Q01DX Z (sc), vehicle: saline) was 110 % of control.

For `O=C(Nc1cccnc1)c1ccc([N+](=O)[O-])s1`, the T/C (dose: 25.0 mg/kg/injection, schedule: Q01DX005 (ip), vehicle: saline) was 108 % of control, the T/C (dose: 50.0 mg/kg/injection, schedule: Q01DX005 (ip), vehicle: saline) was 102 % of control and the T/C (dose: 100.0 mg/kg/injection, schedule: Q01DX005 (ip), vehicle: saline) was 111 % of control.

In the case of `Nc1ncnc2c1ncn2C(C=O)OC(C=O)CO` (centres undefined), the T/C (dose: 14.0 mg/kg/injection, schedule: Q01DX Z (sc), vehicle: carboxymethylcellulose (CMC)) is reported as 100 % of control, the T/C (dose: 23.0 mg/kg/injection, schedule: Q01DX Z (sc), vehicle: carboxymethylcellulose (CMC)) is reported as 105 % of control and the T/C (dose: 39.0 mg/kg/injection, schedule: Q01DX Z (sc), vehicle: carboxymethylcellulose (CMC)) is reported as 100 % of control. The T/C (dose: 108.0 mg/kg/injection, schedule: Q01DX Z (sc), vehicle: carboxymethylcellulose (CMC)) was 111 % of control and the T/C (dose: 180.0 mg/kg/injection, schedule: Q01DX Z (sc), vehicle: carboxymethylcellulose (CMC)) was 100 % of control.

With `O=C(Nc1ccc(NC2=NCCN2)cc1)c1cccc(C(=O)Nc2ccc(NC3=NCCN3)cc2)c1` the T/C [1] was 110 % of control, the T/C [2] was 100 % of control and the T/C [3] was 105 % of control. The T/C [4] was 110 % of control.

`S=c1nc[nH]c2nc[nH]c12.[Ag]` was tested, and the T/C (dose: 100.0 mg/kg/injection, schedule: Q01DX Z (sc), vehicle: water) was 100 % of control, the T/C (dose: 200.0 mg/kg/injection, schedule: Q01DX Z (sc), vehicle: water) was 100 % of control and the T/C (dose: 400.0 mg/kg/injection, schedule: Q01DX Z (sc), vehicle: water) was 100 % of control. The T/C (dose: 800.0 mg/kg/injection, schedule: Q01DX Z (sc), vehicle: water) was 100 % of control and the T/C (dose: 1600.0 mg/kg/injection, schedule: Q01DX Z (sc), vehicle: water) was 100 % of control.
